System: HCV replicon
Assay: HCV Replicon Assay (luciferase, 5-2 Luc replicon cells)
Type: cell-based
Details: 5-2 Luc replicon cells (Huh7), 24-48 hours with compound, luciferase counts
Protocol: Actively dividing 5-2 Luc replicon cells were seeded at the density of 5000-7500 cells/well in the volume of 90 μl/well into 96 well plate(s). The cells were then incubated at 37° C. and 5% CO2 for 24 hours. The 5-2 cells are replicon cells licensed from Ralf Bartenschlager (Germany) and have a self-replicating RNA molecule in the Huh7 cell; the RNA contains HCV non-structural proteins that make the self-replication possible.
Various concentrations of compounds (in the volume of 10 μl) were added into each well 24 hours after seeding the cells. The cells were incubated for another 24-48 hours before luciferase assay.
After incubating the 5-2 Luc replicon cells with the compounds for 24-48 hours, media were aspirated from each well and Bright-Glo (Promega) luciferase assay reagents were added to each well according to the manufacturer′s manual. Briefly, the Bright-Glo reagent was diluted with equal volume of PBS and an aliquote (100 μl) was added to each well. After incubating the plate at room temperature for 5 minutes, luciferase counts were taken using a luminometer.

| Compound | Activity (concentration of inhibitory activity) |
| --- | --- |
| O=C(Nc1ccc2c(ccn2C(=O)c2c(Cl)cccc2Cl)c1)C1CCC1 [Compound 258] | b (“b” indicates activity is at a concentration greater than 10 micromolar) |
| Cc1c(C)n(C(=O)c2c(Cl)cccc2Cl)c2ccc(NC(=O)C3CCCC3)cc12 [Compound 13b, 5-(Cyclopentanecarbonyl)amino-1-(2′,6′-dichlorobenzoyl)-2,3-dimethylindole] | a (“a” indicates inhibitory activity at a concentration of less than 10 micromolar) |
| CCC(C)(C)c1cc2cc(NC(=O)c3c(F)cccc3F)ccc2[nH]1 [Compound 285] | a (“a” indicates inhibitory activity at a concentration of less than 10 micromolar) |
| O=C(Nc1ccc2c(ccn2C(=O)c2c(Cl)cccc2Cl)c1)c1cccc(C(F)(F)F)c1 [Compound 250] | b (“b” indicates activity is at a concentration greater than 10 micromolar) |
| Cc1c(C)n(C(=O)c2c(Cl)cccc2Cl)c2ccc(NC(=O)C3CCCCC3)cc12 [Compound 13a, 5-(Cyclohexanecarbonyl)amino-1-(2′,6′-dichlorobenzoyl)-2,3-dimethylindole] | a (“a” indicates inhibitory activity at a concentration of less than 10 micromolar) |
| CCCCC(=O)Nc1ccc2c(c1)c(C)c(C)n2C(=O)c1c(Cl)cccc1Cl [Compound 13e, 5-(n-Butanecarbonyl)amino-1-(2′,6′-dichlorobenzoyl)-2,3-dimethylindole] | a (“a” indicates inhibitory activity at a concentration of less than 10 micromolar) |
| CC(C)(C)c1cc2cc(NC(=O)c3c(F)cccc3F)ccc2[nH]1 [Compound 5e, 2-t-Butyl-5-(2′,6′-difluorophenylcarbonyl)aminoindole] | a (“a” indicates inhibitory activity at a concentration of less than 10 micromolar) |
| Cc1cc2cc(NC(=O)C3CCCCC3)ccc2n1C(=O)c1c(Cl)cccc1Cl [Compound 267] | b (“b” indicates activity is at a concentration greater than 10 micromolar) |
| Cc1cc2cc(NC(=O)[C@H]3CCCN3)ccc2n1C(=O)c1c(F)cccc1Cl [Compound 271] | b (“b” indicates activity is at a concentration greater than 10 micromolar) |
| Cc1cc2cc(NC(=O)C3CC3)ccc2n1C(=O)c1c(F)cccc1C(F)(F)F [Compound 16c-4, 5-Cyclopropanecarbonylamino-1-(2′fluoro-6′-trifluoromethylbenzoyl)-2-methylindole] | a (“a” indicates inhibitory activity at a concentration of less than 10 micromolar) |
| Cc1cc2cc(NC(=O)C3CC3)ccc2n1C(=O)c1cc(Cl)nc(Cl)c1 [Compound 16g-2, 5-Cyclopropanecarbonylamino-1-(2′,6′-dichloro-4′-pyridylcarbonyl)-2-methylindole] | a (“a” indicates inhibitory activity at a concentration of less than 10 micromolar) |
| Cc1cc2cc(NC(=O)c3cccc(F)c3)ccc2n1C(=O)c1c(Cl)cccc1Cl [Compound 244] | b (“b” indicates activity is at a concentration greater than 10 micromolar) |
| Cc1cc2cc(NC(=O)c3cccc(C(F)(F)F)c3)ccc2n1C(=O)c1c(Cl)cccc1Cl [Compound 243] | b (“b” indicates activity is at a concentration greater than 10 micromolar) |
| O=C(Nc1ccc2c(ccn2C(=O)c2c(Cl)cccc2Cl)c1)c1cccs1 [Compound 251] | b (“b” indicates activity is at a concentration greater than 10 micromolar) |
| CC(=O)N1CCC(C(=O)Nc2ccc3[nH]c(C(C)(C)C)cc3c2)CC1 [Compound 214] | b (“b” indicates activity is at a concentration greater than 10 micromolar) |

Reference: US20050215614A1, “Substituted indoles and their use as hcv inhibitors” (Rigel Pharmaceuticals, Inc., priority 2003, published 2005)
